US10597388B2, “Pyridazinone herbicides” (FMC CORPORATION, priority 2014, dated 2020)

Legend:
Type in all cases: in vivo
[1] = tested on: barnyardgrass (Echinochloa crus-galli); test: Test A greenhouse herbicide test, pre- and postemergence
How it was run: (§1)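 Seeds sown in loam–sand blend got a preemergence directed soil spray of compound in non-phytotoxic solvent with surfactant. Postemergence treatment was given at 2–10 cm, one- to two-leaf stage. After ~10 d in greenhouse, injury was rated visually vs untreated controls, 0 (no effect) to 100 (complete control).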

corn (Zea mays) = test: as above; settings: Postemergence; for Plant response rating, Corn: 125 g ai/ha, 0 to 100 scale where 0 is no effect and 100 is complete control; for Corn plant response rating: 500 g ai/ha, 0 to 100 scale, 0 is no effect, 100 is complete control
How it was run: as §1

[2] = tested on: foxtail, giant (giant foxtail, Setaria faberii); test: as above
How it was run: as §1

kochia (Kochia scoparia) = test: as above
How it was run: as §1

[3] = tested on: pigweed (Amaranthus retroflexus); test: as above
How it was run: as §1

[4] = tested on: ragweed (common ragweed, Ambrosia elatior); test: as above
How it was run: as §1

[5] = tested on: ryegrass, Italian (Italian ryegrass, Lolium multiflorum); test: as above
How it was run: as §1

[6] = tested on: wheat (Triticum aestivum); test: as above; settings: Postemergence; for Plant response rating, Wheat: 125 g ai/ha, 0 to 100 scale where 0 is no effect and 100 is complete control; for Wheat plant response rating: 500 g ai/ha, 0 to 100 scale, 0 is no effect, 100 is complete control
How it was run: as §1

[7] = tested on: johnsongrass (Sorghum halepense); test: Test C greenhouse herbicide test, pre- and postemergence
Description: (§2) Seeds of plant species selected from blackgrass (Alopecurus myosuroides), ryegrass, Italian (Italian ryegrass, Lolium multiflorum), wheat (winter wheat, Triticum aestivum), galium (catchweed bedstraw, Galium aparine), corn (Zea mays), large crabgrass, large (large crabgrass, Digitaria sanguinalis), foxtail, giant (giant foxtail, Setaria faberii), johnsongrass (Sorghum halepense), lambsquarters (Chenopodium album), morningglory (Ipomoea coccinea), nutsedge, yellow (yellow nutsedge, Cyperus esculentus), pigweed (Amaranthus retroflexus), ragweed (common ragweed, Ambrosia elatior), soybean (Glycine max), barnyardgrass (Echinochloa crus-galli), oilseed rape (Brassica napus), waterhemp (common waterhemp, Amaranthus rudis), and velvetleaf (Abutilon theophrasti) were planted into a blend of loam soil and sand and treated preemergence with test chemicals formulated in a non-phytotoxic solvent mixture which included a surfactant.
(§3) At the same time, plants selected from these crop and weed species and also chickweed (common chickweed, Stellaria media), kochia (Kochia scoparia), and oat, wild (wild oat, Avena fatua), were planted in pots containing Redi-Earth® planting medium (Scotts Company, 14111 Scottslawn Road, Marysville, Ohio 43041) comprising spaghnum peat moss, vermiculite, wetting agent and starter nutrients and treated with postemergence applications of test chemicals formulated in the same manner. Plants ranged in height from 2 to 18 cm (1- to 4-leaf stage) for postemergence treatments. Treated plants and controls were maintained in a greenhouse for 13 to 15 d, after which time all species were compared to controls and visually evaluated. Plant response ratings, summarized in Table C, are based on a scale of 0 to 100 where 0 is no effect and 100 is complete control. A dash (-) response means no test result.

[8] = tested on: waterhemp (common waterhemp, Amaranthus rudis); test: as above
Description: as §2, §3

[9] = Postemergence, 125 g ai/ha, 0 to 100 scale where 0 is no effect and 100 is complete control
[10] = Postemergence, 500 g ai/ha, 0 to 100 scale, 0 is no effect, 100 is complete control
[11] = Preemergence, 125 g ai/ha, 0 to 100 scale where 0 is no effect and 100 is complete control
[12] = Preemergence, 500 g ai/ha, 0 to 100 scale, 0 no effect, 100 complete control
[13] = Preemergence, 500 g ai/ha, 0 to 100 scale where 0 is no effect and 100 is complete control
[14] = Postemergence, 31 g ai/ha, 0 to 100 scale (0 no effect, 100 complete control)
[15] = Postemergence, 125 g ai/ha, scale 0 to 100, 0 is no effect, 100 is complete control
[16] = Postemergence, 250 g ai/ha, scale 0 to 100, 0 no effect, 100 complete control, 13 to 15 d
[17] = Preemergence, 31 g ai/ha, scale 0 to 100, 0 is no effect, 100 is complete control
[18] = Preemergence, 62 g ai/ha, scale 0 to 100, 0 is no effect, 100 is complete control
[19] = Preemergence, 125 g ai/ha, scale 0 to 100, 0 is no effect, 100 is complete control
[20] = Preemergence, 250 g ai/ha, scale 0 to 100, 0 no effect, 100 complete control
[21] = postemergence, 62 g ai/ha, scale 0 to 100, 0 no effect, 100 complete control

## Cc1nn(C)c(=O)c(-c2ccc(Br)c3ccccc23)c1O [Compound 75]
[1]; [9]
  Plant response rating, Barnyardgrass: 0
[1]; [10]
  Barnyardgrass plant response rating: 60
[1]; [11]
  Barnyardgrass plant response rating: 40
[1]; [12]
  Plant response rating, Barnyardgrass: 80
Corn (Zea mays)
  Plant response rating, Corn: 0
  Corn plant response rating: 20
[2]; [9]
  Plant response rating, Foxtail, Giant: 50
[2]; [10]
  Foxtail, Giant plant response rating: 50
[2]; [11]
  Foxtail, Giant plant response rating: 50
[2]; [13]
  Plant response rating, Foxtail, Giant: 90
Kochia (Kochia scoparia); [9]
  Plant response rating, Kochia: 80
Kochia (Kochia scoparia); [10]
  Kochia plant response rating: 90
Kochia (Kochia scoparia); [11]
  Kochia plant response rating: 80
Kochia (Kochia scoparia); [13]
  Plant response rating, Kochia: 90
[3]; [9]
  Plant response rating, Pigweed: 30
[3]; [10]
  Pigweed plant response rating: 50
[3]; [11]
  Pigweed plant response rating: 100
[3]; [13]
  Plant response rating, Pigweed: 100
[4]; [9]
  Plant response rating, Ragweed: 60
[4]; [10]
  Ragweed plant response rating: 90
[4]; [11]
  Ragweed plant response rating: 70
[4]; [13]
  Plant response rating, Ragweed: 90
[5]; [9]
  Plant response rating, Ryegrass, Italian: 90
[5]; [10]
  Ryegrass, Italian plant response rating: 100
[5]; [11]
  Ryegrass, Italian plant response rating: 100
[5]; [13]
  Plant response rating, Ryegrass, Italian: 100
[6]
  Plant response rating, Wheat: 0
  Wheat plant response rating: 20
[7]; [14]
  Johnsongrass plant response rating: 5
[7]; [15]
  Plant response rating, Johnsongrass: 5
[7]; [16]
  Plant response rating, Johnsongrass: 10
[7]; [17]
  Plant response rating, Johnsongrass: 0
[7]; [18]
  Plant response rating, Johnsongrass: 20
[7]; [19]
  Plant response rating, Johnsongrass: 20
[7]; [20]
  Johnsongrass plant response rating: 10
[7]; [21]
  Johnsongrass plant response rating: 5
[8]; [14]
  Waterhemp plant response rating: 100
[8]; [15]
  Plant response rating, Waterhemp: 100
[8]; [16]
  Plant response rating, Waterhemp: 100
[8]; [17]
  Plant response rating, Waterhemp: 100
[8]; [18]
  Plant response rating, Waterhemp: 100
[8]; [19]
  Plant response rating, Waterhemp: 100
[8]; [20]
  Waterhemp plant response rating: 100
[8]; [21]
  Waterhemp plant response rating: 100

## CCC(=O)Oc1c(C)nn(C)c(=O)c1-c1c(C)ccc2ccccc12 [Compound 78]
[1]; [9]
  Plant response rating, Barnyardgrass: 20
[1]; [10]
  Barnyardgrass plant response rating: 30
[1]; [11]
  Barnyardgrass plant response rating: 0
[1]; [12]
  Plant response rating, Barnyardgrass: 70
Corn (Zea mays)
  Plant response rating, Corn: 0
  Corn plant response rating: 0
[2]; [9]
  Plant response rating, Foxtail, Giant: 20
[2]; [10]
  Foxtail, Giant plant response rating: 70
[2]; [11]
  Foxtail, Giant plant response rating: 20
[2]; [13]
  Plant response rating, Foxtail, Giant: 60
Kochia (Kochia scoparia); [9]
  Plant response rating, Kochia: 50
Kochia (Kochia scoparia); [10]
  Kochia plant response rating: 90
Kochia (Kochia scoparia); [11]
  Kochia plant response rating: 20
Kochia (Kochia scoparia); [13]
  Plant response rating, Kochia: 100
[3]; [9]
  Plant response rating, Pigweed: 60
[3]; [10]
  Pigweed plant response rating: 90
[3]; [11]
  Pigweed plant response rating: 60
[3]; [13]
  Plant response rating, Pigweed: 100
[4]; [9]
  Plant response rating, Ragweed: 40
[4]; [10]
  Ragweed plant response rating: 80
[4]; [11]
  Ragweed plant response rating: 60
[4]; [13]
  Plant response rating, Ragweed: 90
[5]; [9]
  Plant response rating, Ryegrass, Italian: 80
[5]; [10]
  Ryegrass, Italian plant response rating: 100
[5]; [11]
  Ryegrass, Italian plant response rating: 100
[5]; [13]
  Plant response rating, Ryegrass, Italian: 100
[6]
  Plant response rating, Wheat: 0
  Wheat plant response rating: 60
[7]; [14]
  Johnsongrass plant response rating: 5
[7]; [15]
  Plant response rating, Johnsongrass: 5
[7]; [16]
  Plant response rating, Johnsongrass: 5
[7]; [21]
  Johnsongrass plant response rating: 5
[8]; [14]
  Waterhemp plant response rating: 75
[8]; [15]
  Plant response rating, Waterhemp: 80
[8]; [16]
  Plant response rating, Waterhemp: 90
[8]; [21]
  Waterhemp plant response rating: 90
